*1 amine or outer side, *2 acyl side, *3 side chain or, on linkers, in order; H or OH if unused. Where a SMILES comes first, the peptide text is derived from it. Bridges are numbered along the chain shown (N, C = ends). Roman numbers before positions name the chains, in order. [ ]: non-standard residue; d: D form. Actinocin(9to1) = Cc1c2oc3c(C)ccc(C(=O)[*:1])c3nc-2c(C(=O)[*:2])c(N)c1=O; NMeV = CN[C@H](C(=O)O)C(C)C; Sar = CNCC(=O)O
How the values were obtained:
Type in all cases: cell-based
U937 cells = assay: Chemosensitivity of U937 cells, accumulated caspase activity; details: cell line U937, FIG. 3; for effectiveness (apoptosis induction) as concentration increases: average from three independent experiments
Description: (§1) This object is achieved by a method for determining the chemosensitivity of cells towards at least one substance by measuring the apoptosis induced by said at least one substance, wherein the apoptosis is determined from the accumulated caspase activity of a sample comprising cells and a medium by adding said at least one substance to the sample followed by incubation, and measuring the accumulated caspase activity in the sample upon disruption of the cells without previously separating off the cells. In particular, the method according to the invention permits the use of substrates which are hardly cell-permeating or not cell-permeating at all.
(§2) It is essential that the accumulated caspase activity is measured. In this approach, cells, e.g., tumor cells of a patient, are incubated with at least one substance (e.g., cytostatic agent) for an extended period of time so that all effective pharmaceuticals, even the slowly acting, have had enough time to induce apoptosis. Subsequently, for example, a substrate present in a lysis buffer is added, and after the cell lysis has been effected, the total caspase activity formed, i.e., the accumulated activity, of the cellular suspension is measured. […] The conventionally determined (with a washing step) caspase activity increases at the same rate as the accumulated caspase activity, but decreases when the secondary necrosis begins (see FIG. 1). Thus, the principle of measuring the accumulated caspase activity permits to detect the effect of substances on the cells by a single caspase activity measurement. This test has a low need of cells and can be performed as a routine test by laboratory or technical assistants within a short time. Due to the easy automation, the personnel expenditure for performing the test is low. Since the test can be performed on ELISA reading devices, which are available everywhere, no investment in equipment is necessary. Miniaturization is possible to further reduce the consumption of materials. It could be shown that cells can be kept in culture for some days in less than 10 μl of medium. The reduction of the number of cells per sample compartment from 100 to 1000 per test enables highly parallel analyses of samples with extremely few cells from patients, e.g., from fine needle biopsies. The low need of cells also permits the high throughput screening (HTS) of unknown substances for anti-tumor activity.
The caspase activity of 250 000 Jurkat cells in 100 μl of medium was determined after different incubation times with 1 μg/ml actinomycin D both conventionally and according to the method of accumulated caspase activity according to the invention. Thus, 100 μl of Jurkat cells (2.5×10^6/ml) was incubated in the presence of actinomycin D at 5% CO2 and 37° C. in RPMI medium with 10% FCS and Pen/Strep. After the incubation, the cells were centrifuged by a conventional method and washed with PBS. The pellet was resuspended in 200 μl of lysis buffer, incubated on ice for 10 min and frozen at −20° C. The accumulated caspase activity was determined by mixing 100 μl of the cells incubated with actinomycin D, directly in suspension, with 100 μl of 2× lysis buffer. The lysate was also frozen at −20° C. All lysates were simultaneously thawed, and aminocoumarin-DEVD was added. At room temperature, the release of fluorescent aminocoumarin by caspase was monitored every 5 min over a period of 2 h. From the linear increase of the signal, the slope was calculated as a measure of caspase activity. The spontaneous caspase activities of the Jurkat cells in the absence of actinomycin D, not shown in the Figure, increase with time, but remain lower than 4 min^−1.
The chemosensitivities of U937 and HL60 cells towards the cytostatic agents indicated in FIGS. 3 and 4 were tested in the stated concentration ranges.
The effect of four cytostatic agents on the cell line U937 was tested. Each data point represents the average from three independent experiments.

[1] = tested on: isolated cells from the peripheral blood (PBMNC) of healthy volunteers; assay: Chemosensitivity of PBMNC, caspase activity; details: PBMNC of healthy subjects; for concentration by which caspase activity can be induced: average from three independent experiments
Description: as §1, §2
For establishing the test for peripheral blood or bone marrow, isolated cells from the peripheral blood (PBMNC) of healthy volunteers were tested first, taking care that acute infections, as frequently encountered in the fall/winter season, could be excluded. FIGS. 5 and 6 illustrate the results of the studies with two cytostatic agents.
As compared to tested leukemia cell lines, the PBMNCs respond later to daunorubicin.

HL60 cells = assay: Chemosensitivity of HL60 cells, accumulated caspase activity; details: promyeloic HL60 cells
Description: as §1
as §2, with “The reduction of the number of cells per sample compartment from 100 to 1000 per test enables highly parallel analyses of samples with extremely few cells from patients, e.g., from fine needle biopsies. The low need of cells also permits the high throughput screening (HTS) of unknown substances for anti-tumor activity.” left out
The caspase activity of 250 000 Jurkat cells in 100 μl of medium was determined after different incubation times with 1 μg/ml actinomycin D both conventionally and according to the method of accumulated caspase activity according to the invention. […] The accumulated caspase activity was determined by mixing 100 μl of the cells incubated with actinomycin D, directly in suspension, with 100 μl of 2× lysis buffer. […] At room temperature, the release of fluorescent aminocoumarin by caspase was monitored every 5 min over a period of 2 h. From the linear increase of the signal, the slope was calculated as a measure of caspase activity. […]

| SMILES | maximum inducible caspase activity (U937 cells) | effectiveness (apoptosis induction) as concentration increases (U937 cells) | plateau (unchanging maximum caspase activity) [1] | concentration by which caspase activity can be induced [1] | maximum inducible caspase activity reached at the highest concentration measured (HL60 cells) | induced caspase activities (comparison between agents) (HL60 cells) | response compared to tested leukemia cell lines [1] | concentration at maximum in caspase activity (HL60 cells; apoptosis signal decreases at higher concentrations) |
| --- | --- | --- | --- | --- | --- | --- | --- | --- |
| Nc1ccn([C@@H]2O[C@H](CO)[C@@H](O)[C@@H]2O)c(=O)n1 [Ara-C, cytosine arabinoside (Ara-C)] | relatively low | also increases | not reached for any of the tested PBMNCs | > 200 ng/mL | appears not yet to have reached the maximum caspase activity |  |  |  |
| Cc1c2oc3c(C)ccc(C(=O)N[C@@H]4C(=O)N[C@H](C(C)C)C(=O)N5CCC[C@H]5C(=O)N(C)CC(=O)N(C)[C@@H](C(C)C)C(=O)O[C@@H]4C)c3nc-2c(C(=O)N[C@@H]2C(=O)N[C@H](C(C)C)C(=O)N3CCC[C@H]3C(=O)N(C)CC(=O)N(C)[C@@H](C(C)C)C(=O)O[C@@H]2C)c(N)c1=O [actinomycin D] (I: T[dV]P[Sar][NMeV] / II: T[dV]P[Sar][NMeV]; ester I:1-I:C, II:1-II:C; linker I:N-II:N via Actinocin(9to1)) | highest | also increases |  |  |  | higher caspase activities than Ara-C and prednisolone |  |  |
| COc1cccc2c1C(=O)c1c(O)c3c(c(O)c1C2=O)C[C@@](O)(C(C)=O)C[C@@H]3O[C@H]1C[C@H](N)[C@H](O)[C@H](C)O1 [daunorubicin] | significantly higher | also increases | not reached for the subjects NP1 and NP5 to NP8, and only roughly so for the subjects NP2 to NP4 | > 50 ng/mL |  | higher caspase activities than Ara-C and prednisolone | respond later |  |
| C[C@]12C=CC(=O)C=C1CC[C@@H]1[C@@H]2[C@@H](O)C[C@@]2(C)[C@H]1CC[C@]2(O)C(=O)CO [prednisolone] |  | no or but a slight apoptosis induction |  |  |  |  |  | about 700 ng/ml |

Reference: patent US20050260555A1, “Chemosensitivity measurement using caspase activity” (Evotec Analytical Systems GmbH, priority 1999, published 2005)
